Test results published in US6833376B2, “5-aminoalkyl and 5-aminocarbonyl substituted indoles” (H. Lundbeck A/S, priority 1999, dated 2004).
Where two headings read alike, the source gives them in different places.

Key:
[1] = molecular target: T1, serotonin S2 (5HT2A) receptors (Rattus norvegicus, UniProt P14842); experiment: Inhibition of [3H]-ketanserin binding to serotonin S2 (5HT2A) receptors in rat cortex in vitro
T1 construct: rats (125-250 g) are sacrificed and cortical tissue is dissected and weighed; from tissue; host or cells: rat cortex membranes (male Wistar rats)
T1 sequence (P14842 whole entry): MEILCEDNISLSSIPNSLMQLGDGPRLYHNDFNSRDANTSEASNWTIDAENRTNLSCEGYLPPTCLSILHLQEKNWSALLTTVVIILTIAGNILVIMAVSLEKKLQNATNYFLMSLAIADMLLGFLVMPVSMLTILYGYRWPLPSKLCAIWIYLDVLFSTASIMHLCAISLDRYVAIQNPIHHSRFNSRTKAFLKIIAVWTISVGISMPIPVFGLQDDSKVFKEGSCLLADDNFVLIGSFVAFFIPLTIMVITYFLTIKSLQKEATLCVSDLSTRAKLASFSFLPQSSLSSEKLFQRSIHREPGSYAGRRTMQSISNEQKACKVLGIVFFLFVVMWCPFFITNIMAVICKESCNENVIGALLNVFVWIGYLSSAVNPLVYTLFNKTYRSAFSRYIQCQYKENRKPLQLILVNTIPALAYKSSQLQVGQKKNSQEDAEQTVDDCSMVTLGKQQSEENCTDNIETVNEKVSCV
Procedure: INHIBITION OF [^3H]-KETANSERIN BINDING TO SEROTONIN S2 (5HT2A) RECEPTORS IN RAT CORTEX IN VITRO
By this method, the inhibition by drugs of the binding of [^3H]-ketanserin (0.5 nM) to serotonin S2 (5-HT2) receptors in membranes from rat cortex is determined in vitro.
The tissue is homogenized (Ultra Turrax, 10 sec) in 10 mL of ice cold 50 mM tris buffer pH 7.7 (at 25° C.). The centrifige glassware used in this step has been rinsed by sonication for 10 min in ethanol. The homogenate is centrifuged twice at 20,000 g for 10 min. at 4° C., with rehomogenization of the pellet in 10 mnL ice-cold buffer. The final pellet is homogenized in 250 vol (w/v) ice-cold buffer.
Incubation tubes (96 deep well titer plate) kept on ice receive 50 mL of [^3H]-ketanserin (final concentration 0.5 nM).
The binding experiment is initiated by addition of […] of tissue suspension (final tissue content corresponds to 4 mg original tissue) and by placing the 96 deep well titer plate in a 37° C. water bath. All tests are made in triplicates.
After incubation for 30 min, the samples are filtered on a Brandel harvester under vacuum (18 inch Hg) through printed filter mat B (13 mm). Titerplate and filter are washed 2×10 sec. flow 50L/h with ice cold buffer.
The printed filter mat with purred labelled tissue are dried for 1 h at 110° C. and hereafter placed in a sample bag with Meltilex B/HS 14.5 g and melted together on the T-tray heat seal.
Specific binding is obtained by subtracting the nonspecific binding in the presence of 1 mM mianserin.
(§1) For determination of the inhibition of binding, five concentrations of drugs covering 3 decades are used.
[^3H]-ketanserin=(ethylene-^3H)-ketanserin hydrochloride from New England Nuclear, specific activity […].

[2] = molecular target: α1-adrenoceptors; experiment: Inhibition of [3H]-prazosin binding to α1-adrenoceptors in rat brain in vitro; settings: [3H]-prazosin 0.25 nM, membranes from rat brain
Procedure: Method and results in Hyttel & Larsen, J. Neurochem.
The tissue is homogenized (Ultra Turrax, 10 se) in 10 mL of ice cold 50 mM tris buffer pH 7.7 (at 25° C.). The homogenate is centiflged twice at 20,000 g for 10 min at 4° C. with rehomogenization of the pellet in 10 ml ice-cold buffer. The final pellet is homogenized in 250 vol (w/v) ice-cold buffer.
The binding experiment is initiated by addition of […] of tissue suspension (final tissue content corresponds to 3 mg original tissue) and by placing the 96 deep well titer plate in a 25° C. water bath. AU tests are made in triplicates. After incubation for 20 min, the samples are filtered on a Brandel harvester under vacuum (18 inch. Hg) through printed filtermat B (13 mm). Titerplates and filter are washed 1×10 sec flow 50 L/h with ice cold buffer.
The filter mat is dried for 1 h at 110° C. and then placed in a sample bag with Meltilex B/HS (14.5 g) and melted together on the T-Tray heat sealer.
as §1

[3] = molecular target: T2, dopamine D2 receptors (Rattus norvegicus, UniProt P61169); experiment: Inhibition of [3H]-spiperone binding to dopamine D2 receptors in rat corpus striatum in vitro
T2 construct: rats (125-250 g) are sacrificed and striatal tissue is dissected and weighed; from tissue; host or cells: rat corpus striatum membranes (male Wistar rats)
T2 sequence (P61169 whole entry): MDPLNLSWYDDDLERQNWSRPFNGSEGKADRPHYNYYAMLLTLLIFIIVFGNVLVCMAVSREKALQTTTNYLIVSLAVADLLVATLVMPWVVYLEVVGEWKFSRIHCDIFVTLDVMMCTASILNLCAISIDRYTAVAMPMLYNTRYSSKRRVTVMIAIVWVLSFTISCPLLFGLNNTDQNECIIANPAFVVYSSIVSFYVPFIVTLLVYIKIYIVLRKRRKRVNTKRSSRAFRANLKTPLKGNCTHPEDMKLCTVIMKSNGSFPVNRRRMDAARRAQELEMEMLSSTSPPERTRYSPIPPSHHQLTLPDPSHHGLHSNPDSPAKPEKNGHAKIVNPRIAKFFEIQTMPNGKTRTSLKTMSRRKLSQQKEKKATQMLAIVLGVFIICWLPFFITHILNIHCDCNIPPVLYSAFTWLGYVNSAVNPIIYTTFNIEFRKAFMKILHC
Procedure: Inhibition of [^3H]-Spiperone Binding to Dopamnine D2 Receptors in Rat Corpus Striatum in vitro
By this method, the inhibition by drugs of the binding of [^3H]-spiperone (=^3H]-spiro-peridol) (0.5 nM) to dopamine D-2 receptors in membranes from rat corpus striatum is determined in vitro. […] PharmacoL. ToxicoL. […] This is a test for dopamnine D2 receptor binding affinity in vitro.
The tissue is homogenized (Ultra Turrax, 10 sec.) in 10 mL of ice-cold 50 mM K-phosphate buffer pH 7.4 (at 25° C.). The homogenate is centrifuiged twice at 20,000 g for 10 min at 4° C. with rehomogenization of the pellet in 10 mL ice-old buffer. The final pellet is homogenized in 1300 vol (w/v) ice-cold buffer.
The binding experiment is initiated by addition of 100 μl of [^3H]-spiperone (final concentration 0.5 nM) and by placing the tubes in a 37° C. water bath. […] The tubes are rinsed with 5 mL ice-old buffer which are then poured on the filters. Thereafter, the filters are washed with 2×5 mL of buffer. The filters are placed in counting vials and 4 mL of appropriate scintillation fluid (e.g. Picofluor™15) are added. After shaking for 1 h and storage for 2 hrs in the dark, the content of radioactivity is determined by liquid scintillation counting. Specific binding is obtained by subtracting the nonspecific binding in the presence of 10 μM of 6,7-ADTN.
For determination of the inhibition of binding, five concentrations of drugs covering 3 orders of magnitude are used.
[^3H]-Spiperone=[phenyl-4-^3H]-spiperone from Amersham International plc. England, specific activity 15-25 Ci/mmol.

[4] = [3H]-ketanserin 0.5 nM, membranes from rat cortex, read-out: IC50 values 5-HT2A
[5] = [3H]-spiperone 0.5 nM, membranes from rat corpus striatum, read-out: IC50 values D2

SMILES | IC50 [1, 4] [µM] | melting point [°C] | IC50 [2] [µM] | IC50 [3, 5] [µM] | IC50 [1] [µM] | IC50 [3] [µM]
CN(C)C(=O)c1ccc2c(c1)c(C1CCN(CCN3CCNC3=O)CC1)cn2-c1ccc(F)cc1 [Compound 7b, N,N-Dimethyl-1-(4-fluorophenyl)-3-[1-[2-(2-imidazolidinon-1-yl)ethyl]4-piperidinyl]-1H-indole-5-carboxamide] | 0.018 | 172 to 176 | 0.0054 | 0.17 | – | –
CN(C)Cc1ccc2c(c1)c(C1CCN(CCN3CCNC3=O)CC1)cn2-c1ccc(F)cc1 [Compound 7c, 1-[2-[4-[5-Dimethylaminomethyl-1-(4-fluorophenyl)-1H-indol-3-yl]-1-piperidinyl]ethyl]-2-imidazolidinon] | 0.05 | 166 to 174 | 0.0013 | 0.18 | – | –
CN(C)Cc1ccc2c(c1)c(C1=CCN(CCN3CCNC3=O)CC1)cn2-c1ccc(F)cc1 [Compound 7d, 1-[2-[4-[5-Dimethylaminomethyl-1-(4-fluorophenyl)-1H-indol-3-yl]-1,2,3,6-tetrahydropyridin-1-yl]ethyl]-2-imidazolidinon] | – | 146 to 148 | 0.00053 | – | 0.08 | 0.035
COc1cc2nc(N3CCN(C(=O)c4ccco4)CC3)nc(N)c2cc1OC [Prazosin, reference compound] | – | – | 0.00036 | – | – | –
O=C1NCCN1CCN1CCC(c2cn(-c3ccc(F)cc3)c3ccc(Cl)cc23)CC1 [Sertindole, sertindole, reference compound] | – | – | 0.0034 | – | – | –
